Assay results as given in US20080015202A1, “Thiazole Derivatives Having Vap-1 Inhibitory Activity” (Astellas Pharma Inc., priority 2004, published 2008).
Structures can show the parent of a compound that is named as a salt.

Target: T1, VAP-1 enzyme (SSAO) in human plasma (Homo sapiens, UniProt Q16853)
T1 construct: The enzyme suspension prepared from blood plasma was pre-incubated with one of the present compounds; from tissue; host or cells: human blood plasma
T1 sequence (Q16853 27-763 limits assumed): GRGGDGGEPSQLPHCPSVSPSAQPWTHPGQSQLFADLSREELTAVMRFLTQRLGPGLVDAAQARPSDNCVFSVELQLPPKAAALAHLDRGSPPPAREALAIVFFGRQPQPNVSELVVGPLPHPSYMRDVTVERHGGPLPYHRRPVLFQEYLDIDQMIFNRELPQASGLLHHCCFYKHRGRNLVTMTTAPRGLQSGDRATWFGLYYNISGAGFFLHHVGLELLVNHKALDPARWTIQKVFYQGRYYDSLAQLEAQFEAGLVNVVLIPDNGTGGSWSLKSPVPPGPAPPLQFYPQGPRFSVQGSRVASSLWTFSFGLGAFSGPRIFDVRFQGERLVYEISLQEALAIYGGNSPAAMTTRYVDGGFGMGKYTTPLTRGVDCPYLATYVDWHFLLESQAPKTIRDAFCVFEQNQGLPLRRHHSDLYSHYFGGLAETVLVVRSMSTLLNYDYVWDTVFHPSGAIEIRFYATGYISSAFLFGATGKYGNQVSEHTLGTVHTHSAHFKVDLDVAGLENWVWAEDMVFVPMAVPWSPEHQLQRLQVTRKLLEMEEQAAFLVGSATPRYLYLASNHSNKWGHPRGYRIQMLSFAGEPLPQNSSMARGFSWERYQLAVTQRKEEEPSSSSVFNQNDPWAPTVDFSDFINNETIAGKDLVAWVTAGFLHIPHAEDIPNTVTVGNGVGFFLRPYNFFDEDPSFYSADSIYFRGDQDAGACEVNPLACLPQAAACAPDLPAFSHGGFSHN
Experiment: Inhibitory effect on VAP-1 enzyme (SSAO) activity in human plasma, radiochemical-enzyme assay with 14C-benzylamine
Format: biochemical
Conditions: human plasma enzyme suspension; 30 min pre-incubation at room temperature; 14C-benzylamine 2×10^−5 mol/l, 37° C., 1 hour
Procedure: Inhibitory Effect of the Present Compounds on VAP-1 Enzyme (SSAO) Activity in Human Plasma.
VAP-1 enzyme (SSAO) activity in human plasma was determined by a radiochemical-enzyme assay using ^14C-benzylamine as an artificial substrate. The enzyme suspension prepared from blood plasma was pre-incubated with one of the present compounds or control compound (Reference Example) in 96-well microplate at room temperature for 30 minutes. The enzyme suspension was then incubated with ^14C-benzylamine (2×10^−5 mol/l final concentration) in a final volume of 50 μl at 37° C. for 1 hour. The enzyme reaction was terminated by adding 2 mol/l (50 μl) citric acid. The oxidized products were directly extracted into a 200 μl toluene scintillator, and its radioactivity was measured by a scintillation spectrometer. Inhibition activity was expressed as IC50 (μmol/l) value.

**Q.** For CC(=O)Nc1nc(CCc2ccc(CNC(=N)N)s2)cs1 [Production Example 3, N-(4-{2-[5-({[amino(imino)methyl]amino}methyl)-2-thienyl]ethyl}thiazol-2-yl)acetamide hydrochloride], which IC50 is on record?
**A.** The IC50 was 12 nM.

**Q.** For CC(=O)Nc1nc(CCc2ccc(CC(=O)NC(=N)N)s2)cs1 [Production Example 4, 2-{5-[2-(2-acetylaminothiazol-4-yl)ethyl]-2-thienyl}-N-[amino(imino)methyl]acetamide], which IC50 is on record?
**A.** Its IC50 is 2.4 nM.

**Q.** For CC(=O)Nc1nc(CCc2ccc(Cc3c[nH]c(N)n3)cc2)cs1 [Production Example 17, N-[4-(2-{4-[(2-amino-1H-imidazol-4-yl)methyl]phenyl}ethyl)thiazol-2-yl]acetamide], which IC50 is on record?
**A.** Its IC50 is 5.3 nM.

Tested on: not given
Experiment: not given
Conditions: not given

**Q.** For CC(=O)Nc1nc(CCc2ccc(CCNC(=N)N)s2)cs1 [Production Example 1, N-(4-{2-[5-(2-{[amino(imino)methyl]amino}ethyl)-2-thienyl]ethyl}thiazol-2-yl)acetamide], which melting point is on record?
**A.** Its melting point is 121.5 to 123 °C.

**Q.** Which melting point does the source give for CC(=O)Nc1nc(CCc2ccc(CC(=O)NC(=N)N)s2)cs1 [Production Example 4, 2-{5-[2-(2-acetylaminothiazol-4-yl)ethyl]-2-thienyl}-N-[amino(imino)methyl]acetamide] here?
**A.** Its melting point is 188.5 to 190 °C.

**Q.** With CC(=O)Nc1nc(CCc2ccc(CC(=O)O)s2)cs1 [Production Example 5, 2-{5-[2-(2-acetylaminothiazol-4-yl)ethyl]-2-thienyl}acetic acid] as the compound, how does the melting point read?
**A.** Its melting point is 172 to 173.5 °C.

**Q.** For CC(=O)Nc1nc(CCc2ccc(CN3CCN(C(=O)OC(C)(C)C)CC3)cc2)cs1 [Production Example 11, tert-butyl 4-{4-[2-(2-acetylaminothiazol-4-yl)ethyl]benzyl}-1-piperazinecarboxylate], which melting point is on record?
**A.** Its melting point is 140 to 141 °C.

**Q.** For CC(=O)Nc1nc(CCc2ccc(CN3CCNCC3)cc2)cs1 [Production Example 12, N-(4-{2-[4-(1-piperazinylmethyl)phenyl]ethyl}thiazol-2-yl)acetamide], which melting point is on record?
**A.** Its melting point is 164 to 165.5 °C.
